# Test results published in patent publication US20260234159A1, “SMALL MOLECULE TREATMENT OF FATTY LIVER DISEASE AND HCC” (SCANDIEDGE THERAPEUTICS AB, priority 2023, published 2026).
# Where two headings read alike, the source gives them in different places.
# How the values were obtained:
# HepG2 cells = experiment: Triglyceride (TAG) measurement assay, one week steatosis model; format: cell-based, human; conditions: for activity at 10 µM: Homo sapiens
# Method in brief: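 HepG2 cells steatosis-induced for one week in high-glucose DMEM/10% FBS with 10 μg/ml insulin and 10 μM T0901317, media changed at days 0, 3 and 5, with 10 μM test compound throughout. Triglyceride measured colorimetrically (OD 570 nm); viability by MTT.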
# JNK1/2/3 = experiment: Western blot, JNK1/2/3 P54 and p46 isoforms; format: cell-based, human; conditions: 10 μM, 2 days
# Procedure: HepG2 cells were seeded into a 6-well plate at 400,000 cells per well. After treatment with 10 μM of JNK-IN-5A and its derivatives for two days, lysates were harvested with CelLytic M (C2978, Sigma-Aldrich). […] SDS PAGE were performed using Mini-PROTEAN® TGX™ Precast Gels (Bio-Rad) and transferred using Trans-Blot® Turbo™ Transfer System (Bio-Rad). […] ImageQuantTMLAS 500 (29-0050-63, GE) was used to detect protein bands.
# [1] = In vivo toxicological study in rats: plasma chemistry; parameters: species or system rats of the Wistar strain
# Procedure: Forty-two male and forty-two female rats of the Wistar strain were allocated to the study. Three groups of three males and three females were given doses of 30, 100 and 300 mg/kg of target compounds (Table 8). The vehicle was 1.5 w/w % HPMC, 1.5 w/w % PS80 in 10 mM PBS, pH 7 and dose volume were 5 mL/kg. The animals were acclimatised at least 14 day prior to the study and exposed to a 12 hours light, 12 hours dark light cycle. The formulations were administered via oral gavage. Administration occurred once daily in the morning for seven consecutive days. Blood for scheduled haematology and plasma chemistry were taken at necropsy. For plasma chemistry, 0.6 ml blood (lithium heparin) per animal and for haematology, 0.5 ml blood (K2EDTA) per animal. The blood and plasma were analysed using Exigo analyzer and Vetscan equipment. Blood samples were kept in room temperature […] after collection and mixing. The blood samples were analysed as whole blood within 60 min of collection. The VetScan analyser was calibrated with calibration samples of known plasma levels of each parameter before start of analysis, occasionally during the analysis period of study samples and after completed analyses (Table 10).
# [2] = 168 h, HepG2, 10 μM, one week steatosis induce media, Control 100.00, read-out: TAG (%)
# [3] = HepG2, 168 h, ratio between TAG content and cell viability, Control 100.0, read-out: TAG/cell viability
# [4] = female, 30 mg/kg oral daily 7 d
# [5] = female, 100 mg/kg oral daily 7 d
# [6] = female, 300 mg/kg oral daily 7 d
structure (smiles),measurement,setting,value
"N#Cc1c(NC(=O)c2cccc3ccccc23)sc2c1CCCC2 [JNK-IN-5A, N-(3-cyano-4,5,6,7-tetrahydrobenzo[b]thiophen-2-yl)-1-naphthamide]",activity at 10 µM,HepG2 cells; [2],33%
same,activity at 10 µM,HepG2 cells; [3],58.4%
same,JNK1/2/3 p46 expression,JNK1/2/3,0.88 times
"COc1ccc(C(=O)Nc2sc3c(c2C#N)CCCCC3)cc1OC [PKL-A135, N-(3-cyano-5,6,7,8-tetrahydro-4H-cyclohepta[b]thiophen-2-yl)-3,4-dimethoxy-benzamide]",activity at 10 µM,HepG2 cells; [2],49.1%
same,activity at 10 µM,HepG2 cells; [3],77.6%
same,JNK1/2/3 p46 expression,JNK1/2/3,0.77 times
same,ALB,[1]; [4],56 g/L
same,ALP,[1]; [4],117 U/L
same,ALT,[1]; [4],23 U/L
same,AMY,[1]; [4],564 U/L
same,BUN,[1]; [4],6.0 mmol/L
same,CA,[1]; [4],2.91 mmol/L
same,CRE,[1]; [4],31 µmol/L
same,GLOB,[1]; [4],8 g/L
same,GLU,[1]; [4],8.1 mmol/L
same,K+,[1]; [4],4.6 mmol/L
same,NA+,[1]; [4],141 mmol/L
same,PHOS,[1]; [4],2.30 mmol/L
same,TBIL,[1]; [4],5.3 µmol/L
same,TP,[1]; [4],64 g/L
same,ALB,[1]; [5],59 g/L
same,ALP,[1]; [5],126 U/L
same,ALT,[1]; [5],23 U/L
same,AMY,[1]; [5],589 U/L
same,BUN,[1]; [5],5.7 mmol/L
same,CA,[1]; [5],2.96 mmol/L
same,CRE,[1]; [5],44 µmol/L
same,GLOB,[1]; [5],11 g/L
same,GLU,[1]; [5],7.9 mmol/L
same,K+,[1]; [5],4.4 mmol/L
same,NA+,[1]; [5],140 mmol/L
same,PHOS,[1]; [5],2.34 mmol/L
same,TBIL,[1]; [5],5.0 µmol/L
same,TP,[1]; [5],71 g/L
same,ALB,[1]; [6],59 g/L
same,ALP,[1]; [6],156 U/L
same,ALT,[1]; [6],20 U/L
same,AMY,[1]; [6],590 U/L
same,BUN,[1]; [6],5.3 mmol/L
same,CA,[1]; [6],3.00 mmol/L
same,CRE,[1]; [6],41 µmol/L
same,GLOB,[1]; [6],9 g/L
same,GLU,[1]; [6],7.8 mmol/L
same,K+,[1]; [6],4.6 mmol/L
same,NA+,[1]; [6],142 mmol/L
same,PHOS,[1]; [6],2.91 mmol/L
same,TBIL,[1]; [6],5.3 µmol/L
same,TP,[1]; [6],67 g/L
same,ALB,"[1]; male, 30 mg/kg oral daily 7 d",50 g/L
same,ALP,"[1]; male, 30 mg/kg oral daily 7 d",234 U/L
same,ALT,"[1]; male, 30 mg/kg oral daily 7 d",33 U/L
same,AMY,"[1]; male, 30 mg/kg oral daily 7 d",757 U/L
same,BUN,"[1]; male, 30 mg/kg oral daily 7 d",5.6 mmol/L
same,CA,"[1]; male, 30 mg/kg oral daily 7 d",3.01 mmol/L
same,CRE,"[1]; male, 30 mg/kg oral daily 7 d",39 µmol/L
same,GLOB,"[1]; male, 30 mg/kg oral daily 7 d",15 g/L
same,GLU,"[1]; male, 30 mg/kg oral daily 7 d",8.5 mmol/L
same,K+,"[1]; male, 30 mg/kg oral daily 7 d",4.80 mmol/L
same,NA+,"[1]; male, 30 mg/kg oral daily 7 d",140 mmol/L
same,PHOS,"[1]; male, 30 mg/kg oral daily 7 d",2.20 mmol/L
same,TBIL,"[1]; male, 30 mg/kg oral daily 7 d",5.0 µmol/L
same,TP,"[1]; male, 30 mg/kg oral daily 7 d",65 g/L
same,ALB,"[1]; male, 100 mg/kg oral daily 7 d",50 g/L
same,ALP,"[1]; male, 100 mg/kg oral daily 7 d",259 U/L
same,ALT,"[1]; male, 100 mg/kg oral daily 7 d",25 U/L
same,AMY,"[1]; male, 100 mg/kg oral daily 7 d",770 U/L
same,BUN,"[1]; male, 100 mg/kg oral daily 7 d",5.6 mmol/L
same,CA,"[1]; male, 100 mg/kg oral daily 7 d",2.95 mmol/L
same,CRE,"[1]; male, 100 mg/kg oral daily 7 d",36 µmol/L
same,GLOB,"[1]; male, 100 mg/kg oral daily 7 d",12 g/L
same,GLU,"[1]; male, 100 mg/kg oral daily 7 d",8.9 mmol/L
same,K+,"[1]; male, 100 mg/kg oral daily 7 d",4.83 mmol/L
same,NA+,"[1]; male, 100 mg/kg oral daily 7 d",138 mmol/L
same,PHOS,"[1]; male, 100 mg/kg oral daily 7 d",2.51 mmol/L
same,TBIL,"[1]; male, 100 mg/kg oral daily 7 d",4.7 µmol/L
same,TP,"[1]; male, 100 mg/kg oral daily 7 d",61 g/L
same,ALB,"[1]; male, 300 mg/kg oral daily 7 d",50 g/L
same,ALP,"[1]; male, 300 mg/kg oral daily 7 d",275 U/L
same,ALT,"[1]; male, 300 mg/kg oral daily 7 d",28 U/L
same,AMY,"[1]; male, 300 mg/kg oral daily 7 d",835 U/L
same,BUN,"[1]; male, 300 mg/kg oral daily 7 d",5.7 mmol/L
same,CA,"[1]; male, 300 mg/kg oral daily 7 d",2.98 mmol/L
same,CRE,"[1]; male, 300 mg/kg oral daily 7 d",38 µmol/L
same,GLOB,"[1]; male, 300 mg/kg oral daily 7 d",13 g/L
same,GLU,"[1]; male, 300 mg/kg oral daily 7 d",9.0 mmol/L
same,K+,"[1]; male, 300 mg/kg oral daily 7 d",5.2 mmol/L
same,NA+,"[1]; male, 300 mg/kg oral daily 7 d",140 mmol/L
same,PHOS,"[1]; male, 300 mg/kg oral daily 7 d",2.64 mmol/L
same,TBIL,"[1]; male, 300 mg/kg oral daily 7 d",5.0 µmol/L
same,TP,"[1]; male, 300 mg/kg oral daily 7 d",63 g/L
COc1ccccc1NC(=O)N1CCc2c(sc(NC(=O)c3cccc4ccccc34)c2C#N)C1 [PKL-A152],ratio between TAG content and cell viability,HepG2 cells,low ratio between TAG content and cell viability
same,activity at 10 µM,HepG2 cells; [2],10.8%
same,activity at 10 µM,HepG2 cells; [3],24.5%
same,TAG/cell viability,HepG2 cells; ratio as printed in text with %,24.5%
same,ALB,[1]; [4],56 g/L
same,ALP,[1]; [4],84 U/L
same,ALT,[1]; [4],23 U/L
same,AMY,[1]; [4],548 U/L
same,BUN,[1]; [4],4.9 mmol/L
same,CA,[1]; [4],2.90 mmol/L
same,CRE,[1]; [4],44 µmol/L
same,GLOB,[1]; [4],7 g/L
same,GLU,[1]; [4],8.0 mmol/L
same,K+,[1]; [4],2.9 mmol/L
same,NA+,[1]; [4],148 mmol/L
same,PHOS,[1]; [4],2.28 mmol/L
same,TBIL,[1]; [4],4.0 µmol/L
same,TP,[1]; [4],64 g/L
same,ALB,[1]; [5],58 g/L
same,ALP,[1]; [5],162 U/L
same,ALT,[1]; [5],20 U/L
same,AMY,[1]; [5],573 U/L
same,BUN,[1]; [5],6.0 mmol/L
same,CA,[1]; [5],2.87 mmol/L
same,CRE,[1]; [5],48 µmol/L
same,GLOB,[1]; [5],8 g/L
same,GLU,[1]; [5],7.8 mmol/L
same,K+,[1]; [5],4.5 mmol/L
same,NA+,[1]; [5],139 mmol/L
same,PHOS,[1]; [5],2.38 mmol/L
same,TBIL,[1]; [5],4.7 µmol/L
same,TP,[1]; [5],66 g/L
same,ALB,[1]; [6],56 g/L
same,ALP,[1]; [6],134 U/L
same,ALT,[1]; [6],21 U/L
same,AMY,[1]; [6],539 U/L
same,BUN,[1]; [6],5.2 mmol/L
same,CA,[1]; [6],2.92 mmol/L
same,CRE,[1]; [6],51 µmol/L
same,GLOB,[1]; [6],8 g/L
same,GLU,[1]; [6],7.7 mmol/L
same,K+,[1]; [6],4.8 mmol/L
same,NA+,[1]; [6],140 mmol/L
same,PHOS,[1]; [6],2.39 mmol/L
same,TBIL,[1]; [6],4.7 µmol/L
same,TP,[1]; [6],64 g/L
same,ALB,"[1]; male, 30 mg/kg oral daily 7 d",50 g/L
same,ALP,"[1]; male, 30 mg/kg oral daily 7 d",272 U/L
same,ALT,"[1]; male, 30 mg/kg oral daily 7 d",30 U/L
same,AMY,"[1]; male, 30 mg/kg oral daily 7 d",837 U/L
same,BUN,"[1]; male, 30 mg/kg oral daily 7 d",5.7 mmol/L
same,CA,"[1]; male, 30 mg/kg oral daily 7 d",2.99 mmol/L
same,CRE,"[1]; male, 30 mg/kg oral daily 7 d",42 µmol/L
same,GLOB,"[1]; male, 30 mg/kg oral daily 7 d",13 g/L
same,GLU,"[1]; male, 30 mg/kg oral daily 7 d",8.0 mmol/L
same,K+,"[1]; male, 30 mg/kg oral daily 7 d",4.6 mmol/L
same,NA+,"[1]; male, 30 mg/kg oral daily 7 d",140 mmol/L
same,PHOS,"[1]; male, 30 mg/kg oral daily 7 d",2.11 mmol/L
same,TBIL,"[1]; male, 30 mg/kg oral daily 7 d",4.0 µmol/L
same,TP,"[1]; male, 30 mg/kg oral daily 7 d",63 g/L
same,ALB,"[1]; male, 100 mg/kg oral daily 7 d",51 g/L
same,ALP,"[1]; male, 100 mg/kg oral daily 7 d",267 U/L
same,ALT,"[1]; male, 100 mg/kg oral daily 7 d",25 U/L
same,AMY,"[1]; male, 100 mg/kg oral daily 7 d",838 U/L
same,BUN,"[1]; male, 100 mg/kg oral daily 7 d",5.7 mmol/L
same,CA,"[1]; male, 100 mg/kg oral daily 7 d",2.98 mmol/L
same,CRE,"[1]; male, 100 mg/kg oral daily 7 d",42 µmol/L
same,GLOB,"[1]; male, 100 mg/kg oral daily 7 d",12 g/L
same,GLU,"[1]; male, 100 mg/kg oral daily 7 d",8.2 mmol/L
same,K+,"[1]; male, 100 mg/kg oral daily 7 d",4.7 mmol/L
same,NA+,"[1]; male, 100 mg/kg oral daily 7 d",141 mmol/L
same,PHOS,"[1]; male, 100 mg/kg oral daily 7 d",2.57 mmol/L
same,TBIL,"[1]; male, 100 mg/kg oral daily 7 d",5.0 µmol/L
same,TP,"[1]; male, 100 mg/kg oral daily 7 d",63 g/L
same,ALB,"[1]; male, 300 mg/kg oral daily 7 d",49 g/L
same,ALP,"[1]; male, 300 mg/kg oral daily 7 d",244 U/L
same,ALT,"[1]; male, 300 mg/kg oral daily 7 d",28 U/L
same,AMY,"[1]; male, 300 mg/kg oral daily 7 d",854 U/L
same,BUN,"[1]; male, 300 mg/kg oral daily 7 d",5.5 mmol/L
same,CA,"[1]; male, 300 mg/kg oral daily 7 d",3.04 mmol/L
same,CRE,"[1]; male, 300 mg/kg oral daily 7 d",51 µmol/L
same,GLOB,"[1]; male, 300 mg/kg oral daily 7 d",14 g/L
same,GLU,"[1]; male, 300 mg/kg oral daily 7 d",8.6 mmol/L
same,K+,"[1]; male, 300 mg/kg oral daily 7 d",4.5 mmol/L
same,NA+,"[1]; male, 300 mg/kg oral daily 7 d",143 mmol/L
same,PHOS,"[1]; male, 300 mg/kg oral daily 7 d",2.47 mmol/L
same,TBIL,"[1]; male, 300 mg/kg oral daily 7 d",4.7 µmol/L
same,TP,"[1]; male, 300 mg/kg oral daily 7 d",63 g/L
